Results reported in US8927724B2, “Isoxazole beta-lactamase inhibitors” (priority 2012, dated 2015).
Structures can show the parent of a compound that is named as a salt.

Assays:
KPC-2 β-lactamase = KPC-2 β-lactamase (Klebsiella pneumoniae, UniProt Q9F663); experiment: Inhibition kinetics of KPC-2 with nitrocefin as reporter substrate; type: biochemical, K. pneumoniae; settings: KPC-2, 100 μM nitrocefin, 1×PBS pH 7.4, 25° C.
Description: Inhibition or inactivation of KPC-2 by test inhibitors was assessed using 100 μM nitrocefin (NCF) as a reporter substrate. Assays were performed in 1×PBS pH 7.4, 0.1 mg/ml BSA, in 96-well half area plates, 50 μl reaction volume. NCF was dissolved in DMSO and diluted in assay buffer. Test inhibitors were dissolved in water or DMSO and serially diluted in the assay with final concentrations between […] The enzyme activity in the presence of varying concentrations of test inhibitor was determined by monitoring the hydrolysis of NCF spectrophotometrically at 486 nm, for 5 minutes, 25° C., using a SpectraMax Plus384 microplate reader with SoftMax Pro software (Molecular Devices). Data analysis was performed using GraphPad Prism (GraphPad Software, Inc.).
Progress curves were fit to a first-order rate decay equation (Eq. 1) to determine kobserved (kobs).
kobs vs. inhibitor concentration [I] curves were then fit to Eq.2 to determine the inhibitor dissociation constant (K) and the first order rate constant of enzyme inactivation at infinite inhibitor concentration (kinact). […] Yt=V0*(1−e^(−kobs^*t))/kobs Eq. 1 Where Y is the absorbance at time t, Vo is the uninhibited enzyme velocity, kobs is the observed rate constant of the enzyme inactivation. kobs=kinact*[I]/([I]+K(1+S/Km)) Eq. 2 Where S is the NCF concentration, Km is the KPC-2 Km for NCF

[1] = test system: bacterial strains that express KPC β-lactamases; experiment: Synergy MIC / standard BLI potentiation MIC assay, strains expressing KPC β-lactamases; type: cell-based; settings: at least one KPC strain and/or better spectrum; in the presence of a β-lactam
Description: (§1) The experimental protocol was performed according to Clinical and Laboratory Standards Institute (CLSI) guidelines with modifications as described below (CLSI guidelines can be derived from the CLSI document M07-A9 published in January 2012: “Methods for Dilution Antimicrobial Susceptibility Tests for Bacteria That Grow Aerobically; Approved Standard-Ninth Edition”).
(§2) To prepare for MIC testing, frozen glycerol stocks of clinical isolates (Klebsiella pneumoniae, Eschericia coli, Enterobacter spp, Citrobacter spp, or Pseudomonas aeruginosa) were used to streak for isolated colonies on rich, non-selective, tryptic soy agar containing 5% sheep's blood (TSAB). Frozen glycerol stocks of laboratory engineered, isogenic E. coli strains, which contain cloned β-lactamase expressing plasmids were used to streak for isolated colonies on rich, selective LB agar supplemented with 25 μg/mL tetracycline to maintain the plasmid. All strains were incubated at 37° C. for 18-24 hrs.
(§3) On the day of testing, primary cultures were started by scraping off 5-10 colonies from the TSAB plates containing clinical strains or the tetracycline supplemented LB plates containing engineered strains. The clinical strain material was suspended in ˜5 mL of cation adjusted Mueller Hinton Broth (CAMHB) in 14 mL culture tubes. The engineered strain material was suspended in CAMHB (supplemented with 25 μg/mL tetracycline) in 14 mL culture tubes. All strains were incubated at 37° C. with aeration (200 rpm) for ˜2 hrs until the optical density at 600 nm (OD600) was >0.1.
(§4) The two compound components of the assay were each diluted in CAMHB and added to the 96-well broth microdilution assay plates. 50 μL of the β-lactam was added to each well of the assay plate in 2-fold dilutions with final concentrations ranging from 128 to 0.13 μg/mL. 25 μL of the BLI compound was added to all wells in the broth microdilution plates at a final concentration of 4 μg/mL. Inoculum cultures were prepared by standardizing the primary cultures to OD600=0.1 and then adding 20 μL of the adjusted primary culture per 1 mL CAMHB for clinical strains or CAMHB (supplemented with tetracycline at 100 μg/mL) for engineered strains, so that the final inoculum density was ˜10^5 colony forming units per milliliter. Diluted inoculum cultures were used to inoculate 25 μl, per well in 96-well broth microdilution assay plates. The final volume of each well was 100 μL and contained a β-lactam at different concentrations, a BLI compound at 4 μg/mL concentration, the bacterial culture at an OD600 of approximately 0.001 and when necessary tetracycline at 25 μg/mL.
(§5) Plates were incubated for 18-20 hours at 37° C. with aeration (200 rpm). Following incubation, growth was confirmed visually placing plates over a viewing apparatus (stand with a mirror underneath) and then OD600 was measured using a SpectraMax 340PC384 plate reader (Molecular Devices, Sunnyvale, Calif.). Growth was defined as turbidity that could be detected with the naked eye or achieving minimum OD600 of 0.1. MIC values were defined as the lowest concentration producing no visible turbidity.
The synergy MIC (sMIC) assay determines the concentration of the BLI required to potentiate the activity of a fixed concentration of a β-lactam antibiotic against β-lactamase producing bacterial strains. The experimental protocol was performed according to Clinical and Laboratory Standards Institute (CLSI) guidelines with modifications as described below (CLSI guidelines can be derived from the CLSI document M07-A9 published in January 2012: “Methods for Dilution Antimicrobial Susceptibility Tests for Bacteria That Grow Aerobically; Approved Standard-Ninth Edition”). […]

[2] = test system: bacterial strains that express the class D cephalosporinase OXA-15; experiment: Synergy MIC / standard BLI potentiation MIC assay, strains expressing OXA-15; type: cell-based, E. coli; settings: in the presence of a β-lactam; comparator Avibactam (CCC)
Description: as §1, §2, §3, §4, §5
The synergy MIC (sMIC) assay determines the concentration of the BLI required to potentiate the activity of a fixed concentration of a β-lactam antibiotic against β-lactamase producing bacterial strains. […]

Sequence of KPC-2 β-lactamase (Q9F663 25-293 limits assumed): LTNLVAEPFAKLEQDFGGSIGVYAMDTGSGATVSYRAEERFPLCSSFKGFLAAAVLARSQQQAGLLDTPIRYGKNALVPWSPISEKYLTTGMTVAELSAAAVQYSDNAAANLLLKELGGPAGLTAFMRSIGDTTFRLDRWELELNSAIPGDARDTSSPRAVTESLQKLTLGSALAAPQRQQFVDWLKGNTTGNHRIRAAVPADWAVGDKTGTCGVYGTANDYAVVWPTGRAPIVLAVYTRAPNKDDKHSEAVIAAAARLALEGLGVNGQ

SMILES | inactivation efficiency (kinact/K) (KPC-2 β-lactamase) | activity and/or spectrum of activity against bacterial strains that express KPC β-lactamases, compared with Avibactam [1] | activity against bacterial strains that express OXA-15, compared with Avibactam [2]
NCCc1cc([C@@H]2CC[C@@H]3CN2C(=O)N3OS(=O)(=O)O)no1 [Compound 602, (2S,5R)-2-(5-(2-aminoethyl)isoxazol-3-yl)-7-oxo-1,6-diazabicyclo[3.2.1]octan-6-yl hydrogen sulfate] | 1-99 mM^−s^−1 | more active than Avibactam | 
N=C(N)NCCc1cc([C@@H]2CC[C@@H]3CN2C(=O)N3OS(=O)(=O)O)no1 [Compound 604, (2S,5R)-2-(5-(2-guanidinoethyl)isoxazol-3-yl)-7-oxo-1,6-diazabicyclo[3.2.1]octan-6-yl hydrogen sulfate] |  | more active than Avibactam | more active than Avibactam
CN(Cc1cc([C@@H]2CC[C@@H]3CN2C(=O)N3OS(=O)(=O)O)no1)C(=N)N [Compound 614, (2S,5R)-2-(5-((1-methylguanidino)methyl)isoxazol-3-yl)-7-oxo-1,6-diazabicyclo[3.2.1]octan-6-yl hydrogen sulfate] |  | more active than Avibactam | more active than Avibactam
O=C1N2C[C@@H](CC[C@H]2c2cc(CC3CNC3)on2)N1OS(=O)(=O)O [Compound 618, (2S,5R)-2-(5-(azetidin-3-ylmethyl)isoxazol-3-yl)-7-oxo-1,6-diazabicyclo[3.2.1]octan-6-yl hydrogen sulfate] |  | more active than Avibactam | more active than Avibactam
